Measurements taken from patent US9480671B2, “Reduction of risk of obesity” (Nestec S.A., priority 2009, dated 2016).

Columns and labels:
[1] = generally observed, estimated; cited from earlier work
[2] = Fatty acid composition in plasma phospholipids of guinea pig pups after suckling/weaning diet; assay type: in vivo; conditions: compared to the control group, Table 2
Excerpt: (§1) This example investigates the effect of feeding diets supplemented or not with ARA to newborn guinea pig pups on the development of total fat mass of the pups in the post-weaning period. The infant guinea pig is considered to be a good animal model to study the development fat mass in human infants: Indeed, like newborn human infants, guinea pig pups are born with an appreciable amount of body fat whilst newborn rat and mice pups are very lean. Newborn male guinea pigs were divided into two groups with 20 animals per group. Each group was fed a suckling/weaning diet in which 44% of the energy was supplied by fat for 21 days. The different diets were isocaloric and differed only in their ARA contents. The ARA diet contained 1.5% ARA based on total fatty acids and the control diet contained no ARA. The group receiving ARA diet is coded “ARA diet” or “+AA” in the below and in the figures. The group receiving no ARA is coded “control diet” or −AA″ in the below and in the figures. The levels of linoleic acid and α-linolenic acid were kept relatively constant between the diets such that the ratio of linoleic acid to α-linolenic acid was about 35. […] Body weight and fat mass were recorded at days 21, 51, 79, 107, 128 and 136 and plasma fatty acid composition, and plasma insulin concentrations were recorded at day 21 and day 136.

[3] = tested on: clonal preadipocytes; conditions: compared to PPAR agonists or saturated, mono-unsaturated and n-3 polyunsaturated fatty acids; cited from earlier work
[4] = Fatty acid composition in plasma triglycerides of guinea pig pups after suckling/weaning diet; assay type: in vivo; conditions: compared to the control group, Table 3
Excerpt: as §1

Row | SMILES | maximum amount of ARA in the diet that does not induce adverse effects [1] | incorporation of ARA in plasma phospholipids [2] | differentiation of clonal preadipocytes [3] | incorporation of ARA in plasma triglycerides [4]
1 | CCCCC/C=C\C/C=C\C/C=C\C/C=C\CCCC(=O)O [ARA, arachidonic acid (C20:4n-6)] | about 100 mg ARA/kg/day | higher | substantially promoted | higher
2 | CCCCC[C@H](O)/C=C/[C@@H]1[C@H]2C/C(=C/CCCC(=O)O)C[C@H]2C[C@H]1O [carbacyclin, reference compound] |  |  | mimicked | 
